Test results as given in patent publication US20090082304A1, “Methods of Treating Hematological Malignancies with Nucleoside Analog Drugs” (NORTHWESTERN UNIVERSITY, priority 2004, published 2009).

Key:
Type in all cases: cell-based
[1] = system: caspase 8; test: Caspase 8 activation immunoblot in MM.1 S cells; details: 10 μM
Procedure: (§1) 5×10^6 were cells treated with 10 μM 8-NH2-Ado for the indicated times and harvested. Cell pellets were washed with cold phosphate-buffered saline (PBS; 8.1 g NaCl, 1.14 g Na2HPO4, 0.22 g KCl, and 0.25 g/L KH2PO4) and incubated with lysis buffer (50 mM HEPES, 150 mM NaCl, 1.5 mM MgCl2, 1 mM EDTA pH 8.0, 100 mM NaFI, 10 mM Na Pyrophosphate, 500 μM PMSF, 0.5% Triton X-100, 10% glycerol) at 4° C. for one hour. Lysates were centrifuged at 4° C. for 1 minute at 9000×g, and the supernatants were collected and stored at −20° C. Protein concentration was determined by Bio-Rad protein assay (BioRad Laboratories, Hercules, Calif.). Protein, at a concentration of 30 μg, was mixed with sample buffer (125 mM Tris, pH 6.8, 4% SDS, 20% glycerol, 100 mM Dithiothreitol (DTT), and 0.05% bromophenol blue), and fractionated on a pre-cast 8-16% Tris-Glycine gel (Invitrogen/Novex, Carlsbad, Calif.). […]
(§2) MM.1 S cells were exposed to 10 μM 8-NH2-Ado for 0, 0.5, 1, 2, 4 or 6 hours, after which cells were lysed as previously described. […] Total protein levels were also assessed to ensure equal loading and transfer (data not shown). […]

[2] = system: caspase 9; test: Caspase 9 activation immunoblot in MM.1 S cells; details: 10 μM
Procedure: as §1, §2

[3] = system: MKK3/6; test: Immunoblot of phospho-MKK3/6 in MM.1 S cells; details: 10 μM
Procedure: 5×10^6 were cells treated with 10 μM 8-NH2-Ado for the indicated times and harvested. Cell pellets were washed with cold phosphate-buffered saline (PBS; 8.1 g NaCl, 1.14 g Na2HPO4, 0.22 g KCl, and 0.25 g/L KH2PO4) and incubated with lysis buffer (50 mM HEPES, 150 mM NaCl, 1.5 mM MgCl2, 1 mM EDTA pH 8.0, 100 mM NaFI, 10 mM Na Pyrophosphate, 500 μM PMSF, 0.5% Triton X-100, 10% glycerol) at 4° C. for one hour. Lysates were centrifuged at 4° C. for 1 minute at 9000×g, and the supernatants were collected and stored at −20° C. Protein concentration was determined by Bio-Rad protein assay (BioRad Laboratories, Hercules, Calif.). Protein, at a concentration of 30 μg, was mixed with sample buffer (125 mM Tris, pH 6.8, 4% SDS, 20% glycerol, 100 mM Dithiothreitol (DTT), and 0.05% bromophenol blue), and fractionated on a pre-cast 8-16% Tris-Glycine gel (Invitrogen/Novex, Carlsbad, Calif.). Proteins were then transferred to a Polyvinylidene Fluoride (PVDF) membrane (Immobilon-P, Millipore, Bedford, Mass.): Following protein transfer, membranes were blocked with 5% non-fat milk in PBS-T (PBS with 0.1% Tween), incubated with the primary antibody overnight at 4° C. and subsequently with horseradish peroxidase linked secondary antibody (Amersham, Arlington Heights, Ill.). […]

[4] = system: PKC-8; test: Phosphorylation status of PKC-8

Nc1ncnc2c1nc(N)n2[C@@H]1O[C@H](CO)[C@@H](O)[C@H]1O [8-NH2-Ado, 8-amino-adenosine]
time at which cleaved and activated caspase 8 appears [1]: 2 to 4 h | time at which cleaved and activated caspase 9 appears [2]: 2 to 4 h | Phosphorylated MKK3/6 protein levels ([3]; by 2 hours): decrease significantly | Phosphorylated MKK3/6 protein levels ([3]; by 6 hours): negligible | phosphorylation status of PKC-8 [4]: unaltered
